From US7226892B2, “Herbicidal composition and use” (Durga Technologies ApS, priority 2003, dated 2007)

Key:
[1] = respiratory tract/lungs, eyes, skin; cited from earlier work
[2] = tested on: mixed vegetation of grasses and weeds; assay: Spraying of glycine solution onto mixed vegetation; format: in vivo; conditions: glycine alone, summary statement
From the text: A common squirt bottle delivering a fine spray was used for spraying the weeds.
A solution of 90 g of glycine+15 g of the surfactant “Witconol® SN 90” in 1 L of water was sprayed onto a mixed vegetation of grasses and weeds until the spray liquid dripped from the leaves, corresponding to 0.1 L/m^2.

O=C(O)CC(O)(CC(=O)O)C(=O)O [citric acid, Citric Acid Monohydrate, reference compound]
risk identification / classification as irritant [1]: Irritates respiratory tract/lungs, irritates eyes, skin irritating

NCC(=O)O [glycine, 2-aminoethanoic acid]
risk identification / classification as irritant [1]: not classified as an irritant | herbicidal activity of glycine per se [2]: no noticeable herbicidal activity
